# Laboratory results from article PMC5013068, “Fragment-Based Whole Cell Screen Delivers Hits against M. tuberculosis and Non-tuberculous Mycobacteria” (Frontiers in Microbiology, 2016).
# Assays:
# [1] = test system: Mycobacterium tuberculosis H37Rv (ATCC 27294); assay: Growth inhibition dose response against M. tuberculosis; assay type: cell-based; settings: 7H9 broth, OD600, twofold serial dilution from 500 μM
# [2] = test system: M. bovis BCG (ATCC 35734); assay: microbe, parasite or virus in culture; assay type: cell-based; settings: for MIC50: Mycobacterium tuberculosis variant bovis BCG, 120 h, read-out: M. bovis BCG MIC50, 7H9 broth, 5 days, OD600
# [3] = test system: M. abscessus Bamboo (smooth morphotype); assay: Growth inhibition dose response against M. abscessus; assay type: cell-based; settings: Mycobacteroides abscessus, 72 h; 3 days, max 500 μM
# M. avium 11 = assay: Growth inhibition dose response against M. avium; assay type: cell-based; settings: Mycobacterium avium, 11, 120 h; 5 days, max 500 μM
# [4] = test system: Staphylococcus aureus (ATCC 43300, MRSA); assay: microbe, parasite or virus in culture; assay type: cell-based; settings: 18 h, read-out: S. aureus Growth Inhibition Spectrum (MIC80)
# [5] = test system: Escherichia coli (ATCC 25922); assay: Antibacterial growth inhibition, E. coli; assay type: cell-based; settings: ATCC25922, twofold serial dilution, max 100 μM, 18 h, read-out: E. coli Growth Inhibition Spectrum (MIC80)
# [6] = test system: Klebsiella pneumoniae (ATCC 700603, MDR); assay: microbe, parasite or virus in culture; assay type: cell-based; settings: ATCC700603, 18 h, read-out: K. pneumoniae Growth Inhibition Spectrum (MIC80)
# [7] = test system: Acinetobacter baumannii (ATCC 19606); assay: Antibacterial growth inhibition, A. baumannii; assay type: cell-based; settings: ATCC19606, twofold serial dilution, max 100 μM, 18 h, read-out: A. baumannii Growth Inhibition Spectrum (MIC80)
# [8] = test system: Pseudomonas aeruginosa (ATCC 27853); assay: Antibacterial growth inhibition, P. aeruginosa; assay type: cell-based; settings: ATCC27853, twofold serial dilution, max 100 μM, 18 h, read-out: P. aeruginosa Growth Inhibition Spectrum (MIC80)
# [9] = test system: Candida albicans (ATCC 90028); assay: Antifungal growth inhibition, C. albicans; assay type: cell-based; settings: ATCC90028, twofold serial dilution, max 100 μM, 24 h, read-out: C. albicans Growth Inhibition Spectrum (MIC80)
# [10] = test system: Cryptococcus neoformans (ATCC 208821); assay: Antifungal growth inhibition, C. neoformans; assay type: cell-based; settings: ATCC208821, twofold serial dilution, max 100 μM, 24 h, resazurin, read-out: C. neoformans Growth Inhibition Spectrum (MIC80)
# [11] = MTS cytotoxicity assay, A549; settings: human, A549 cells (ATCC CCL-185)
# [12] = test system: A549 (ATCC CCL-185) cells; assay: MTS cytotoxicity assay, A549; settings: selectivity index vs M. tuberculosis MIC50
# [13] = MTS cytotoxicity assay, HepG2; settings: human, HepG2 cells (ATCC HB.8065)
# [14] = test system: HepG2 (ATCC HB.8065) cells; assay: MTS cytotoxicity assay, HepG2; settings: selectivity index vs M. tuberculosis MIC50
# Red blood cells = assay: Hemolytic activity (red blood cell lysis assay); settings: for RBC SI: selectivity index vs M. tuberculosis MIC50; for RBC HC50: hemolysis, 24 h in PBS, unit not given, same scale as MIC50, i not defined
SMILES,MIC50 [1],"M. bovis BCG MIC50 ([2]; 7H9 broth, 5 days, OD600)",MIC50 [2],MIC50 [3],MIC50 (M. avium 11),MIC80 [4],MIC80 [5],MIC80 [6],MIC80 [7],MIC80 [8],MIC80 [9],MIC80 [10],CC50 [11],A549 SI [12],CC50 [13],HepG2 SI [14],RBC SI (Red blood cells),RBC HC50 (Red blood cells)
CCNc1nc(C)nc2sc(CC)cc12 [Fragment 1],40 µM,4.5 µM,5 µM,> 500 µM,> 500 µM,> 100 µM,> 100 µM,> 100 µM,> 100 µM,> 100 µM,> 100 µM,> 100 µM,> 2500 µM,>24,> 2500 µM,>24,>24,–
Clc1ccc(Oc2cnns2)c2ncccc12 [Fragment 2],43 µM,–,56 µM,> 500 µM,130 µM,> 100 µM,> 100 µM,> 100 µM,> 100 µM,> 100 µM,> 100 µM,> 100 µM,> 2500 µM,>7,200 µM,–,–,250
COc1cccc2sc(S(C)(=O)=O)nc12 [Fragment 3],52 µM,–,20 µM,> 500 µM,> 500 µM,> 100 µM,> 100 µM,> 100 µM,> 100 µM,> 100 µM,> 100 µM,> 100 µM,–,–,–,–,>13,–
Cc1c(C)n(CC(O)CNC2CCCC2)c2c(Cl)cccc12 (centres unmarked) [Fragment 4],55 µM,–,56 µM,125 µM,53 µM,> 100 µM,> 100 µM,> 100 µM,> 100 µM,> 100 µM,> 100 µM,> 100 µM,60 µM,–,45 µM,–,–,125
O=C(c1cc2cc(F)ccc2s1)N1CCC1 [Fragment 5],60 µM,–,68 µM,> 500 µM,> 500 µM,> 100 µM,> 100 µM,> 100 µM,> 100 µM,> 100 µM,> 100 µM,> 100 µM,> 2500 µM,>41,> 2500 µM,>41,>41,–
N#CSC1C=CS(=O)(=O)C1 (centres unmarked) [Fragment 6],92 µM,–,53 µM,> 500 µM,> 500 µM,100 µM,> 100 µM,> 100 µM,100 µM,> 100 µM,100 µM,> 100 µM,1000 µM,11,75 µM,–,24,2200
COn1c(-c2ccc(Cl)cc2)nc2ncccc21 [Fragment 7],104 µM,–,19 µM,150 µM,145 µM,> 100 µM,> 100 µM,> 100 µM,> 100 µM,> 100 µM,> 100 µM,> 100 µM,1800 µM,17,850 µM,8,>23,–
CC1CC(N)=NN1c1ccc(Cl)cn1 (centres unmarked) [Fragment 8],123 µM,–,13 µM,> 500 µM,275 µM,> 100 µM,100 µM,> 100 µM,100 µM,> 100 µM,100 µM,> 100 µM,> 2500 µM,>20,900 µM,7,>20,–
Cc1nc(-c2c[nH]c3ccccc23)cs1 [Fragment 9],126 µM,–,39 µM,> 500 µM,> 500 µM,> 100 µM,> 100 µM,> 100 µM,> 100 µM,> 100 µM,> 100 µM,> 100 µM,> 2500 µM,>20,500 µM,4,>18,–
Cc1cc2nc(CN)[nH]c2cc1C [Fragment 10],131 µM,–,53 µM,> 500 µM,> 500 µM,> 100 µM,> 100 µM,> 100 µM,> 100 µM,> 100 µM,> 100 µM,> 100 µM,1900 µM,15,900 µM,7,16,2100
